In data set [1] the test system is Hep Par 1. Briefly: Immunohistochemistry of xenograft tumour sections. In kind it is in vivo, SCID female mice. The conditions noted are these: five 400 µm × 400 µm zones. How it is done: Paraffin 10µm thick sections of xenograft HePG2 cancer cell tissues embedded in liver parenchyma blocks. The blocks were […] in a 10 mM citrate buffer solution and autoclaved for 20 minutes to extract antigens. After heating the section slide blocks, they were allowed to cool for 1.5 hours at room temperature. The sectioned slides were then incubated overnight at 4°C with a primary antibody against Hepatocyte specific antigen (Hep Par 1) (91091816- SK-HEP-1, Sigma-Aldrich, Bengaluru, India). Further, section slides were incubated with enzyme-linked immunosorbent assay (ELISA) horseradish peroxidase (HRP) conjugated Goat anti-Rabbit IgG (H+L) secondary antibody (Thermo Fisher Scientific, Vadodara, Gujarat) for 1hr followed by treatment with 120µL […] (Dako). For analysing the results of Immunohistochemistry, five square zones […] were measured and averaged for the number of stained cells in each sectioned slide. Using GraphPad Prism 9 (San Diego, California) and student t-test statistical analyses were performed.

Data set [2] is described as follows: Tissue distribution studies. In kind it is in vivo, SCID mice. The conditions noted are these: 20 mg/kg i.v. bolus, killed eight hours later. From the text: Tissue distribution studies in mice with SCID are required in anti-liver cancer activity to determine the distribution and concentration of a drug within the body after administration ([54]). This information is important for understanding how the drug is metabolized and cleared by the body, as well as for determining appropriate dosing regimens. Additionally, tissue distribution studies can help to identify any potential toxicities or side effects associated with the drug in specific organs or tissues. In the case of anti-liver cancer activity, knowing the distribution of the drug in the liver would be particularly important to ensure the drug is reaching its target site and effectively inhibiting the growth of cancer cells. The tissue distribution of a bolus dosage of 20 mg/kg i.v. Cabozantinib (CNB), CNB-PLGA-PSar-NPs was documented. The greatest concentration of CNB was found in liver parenchymal hepatocyte tissue. […] The increased affinity of CNB in the liver and pancreas enables the medication molecule to effectively treat liver cancer.
The tissue distribution was studied by separating 18 SCID mice into three groups (each group had six mice). The drug and its Nano formulations were administered intravenously (i.v.) at a bolus dose of 20 mg/kg. Groups of mice were given a dosage and then killed eight hours later. […] The samples were analysed using RP-UHPLC (Dionex Ultimate, 3000). […]

Data set [3] concerns HePG2 cells Xenograft model. Briefly: In vivo anti-tumour efficacy study, HePG2 xenograft. More on the design: species or system SCID female mice. The conditions noted are these: 20 mg/kg i.v. once weekly, 21 days. Here is the method: The SCID female mice of 8-10 weeks old were used in the in vivo effectiveness study ([53]). SCID stands for severe combined immunodeficiency disorder. Mice were housed in individually ventilated cages with pelleted food, a 12-hour/12-hour dark-light cycle, and unrestricted access to water (supplied ad libitum) in a climate-controlled setting with a temperature range of 25°C ± 3°C. The National Institutes of Health's guidelines for the care and use of animals were followed when conducting all animal experiments, which included those at Animal House of […], India. These facilities also complied with CPCSEA (Committee for the Purpose of Control and Supervision of Experiments on Animals) regulations. Mice were subcutaneously injected with cultured HePG2 cells (5x10^6 cells) in 200μL of RPMI 1640 with 33% Corning Matrigel Basement Membrane Matrix (Sigma-Aldrich, India). […] A digital electronic calliper was used to measure the tumor's size twice a week. To assess toxicity, body weight was monitored twice weekly. Tumour volume was calculated as […]. The SCID female mice were given thiopental anaesthesia prior to being killed by cervical dislocation. Before being implanted in paraffin wax, liver tissues and tumour bulbs from the descending liver were collected and preserved overnight in 10% formalin (CH2O) with a pH 7.4 phosphate buffer solution.

The nature of data set [4]: Pharmacokinetic study, plasma by RP-HPLC. In kind it is in vivo, Male Albino Wister rats. The conditions noted are these: rats, 20 mg/kg intravenous. Here is the method: 06 Male Albino Wister rats (200 to 250 g) are separated into two groups (n=3) for the purpose of conducting pharmacokinetic studies ([55]). For up to 72 hours, a comparative plasma concentration-time profile of Cabozantinib (CNB), CNB-PLGA-PSar-NPs was analysed. […] Using the tail vein of rats, 500µL of blood samples were collected at 0, 0.5, 1, 2, 4, 8, 16, 24, 48, and 72 hours from three animals in each group. Blood samples were stored in a microcentrifuge tube and centrifuged at 7,500 rpm for 30 minutes at 25°C to separate supernatant plasma. The collected samples were analysed using the RP-HPLC system and stored at -80°C (1290 Infinity II LC System, Agilent, USA). Using kinetica 5.0 pharmacokinetics software, the obtained RP-HPLC variables were interpreted in terms of their pharmacokinetics (Thermo Fisher Scientific, Yokohama)

Data set [5] deals with erythrocytes. Briefly: Erythrocyte membrane integrity by lactate dehydrogenase release. The conditions noted are these: erythrocyte suspension, 10, 50 and 100 µg/mL, 8 hours. In kind it is cell-based, human. Here is the method:
Erythrocytes produce lactate dehydrogenase (LDH), which may be measured photometrically using the LDH test kit/Lactate Dehydrogenase Assay Kit (Colorimetric) (ab102526) ([50]). For the LDH investigation, blood was obtained from the neighbouring blood bank. The erythrocyte suspension was made according to the methodology described in our earlier research. In 1mL of erythrocyte solution was treated with specific amount of Cabozantinib (CNB), PLGA-PSar-encapsulated Cabozantinib nanoparticles (CNB-PLGA-PSar-NPs), and placebo (PLGA-PSar-NPs) ([51]). Positive control sample was created by diluting erythrocyte suspension with 1% Triton-X-100, whereas negative control sample was created by diluting erythrocyte suspension with normal saline solution. […] LDH was detected at 500nm after a ready-to-use LDH solution was added to the supernatant. The total of LDH was calculated using the following formula. […]
Where, A sample stands for Cabozantinib, PLGA-PSar-encapsulated Cabozantinib nanoparticles (CNB-PLGA-PSar-NPs) incubated erythrocytes absorbance, A negative control indicates, erythrocytes absorbance of sample, which was pre-treated with normal saline solution. The A standard indicates the absorbance of erythrocytes sustention, which were pre-treated with 150/UL Lactate dehydrogenase (LDH) enzyme. […]

[6] abbreviates: male, Albino Wister, rat, plasma.

By Cmax is commonly meant the highest concentration seen after dosing. As usually defined, the MRT is a mean duration of stay, worked out from the concentration-time curve. Broadly, the Vd is a proportionality between amount in the body and measured concentration, not a real space. As usually defined, the clearance is a measure of how efficiently the substance is removed, as volume per time. With `COc1cc2nccc(Oc3ccc(NC(=O)C4(C(=O)Nc5ccc(F)cc5)CC4)cc3)c2cc1OC` [CNB, Cabozantinib], in data set [1], the “Hep Par 1 labelling index” value was 9.22 ± 1.67. Also, the tissue distribution result in data set [2] is “more widely distributed in the parenchymal hepatocyte tissue”. In data set [3], the “reduction in the size of the tumour compared to the vehicle control” value is listed as 60.3%. In data set [4] (setting [6]), this molecule registered a C0 of 215 ± 16.3 ng/mL, a Cmax of 241 ± 34.2 ng/mL, a mean residence time (MRT) of 7.45 ± 0.24 h and a Vd of 1.522 ± 0.00154 L. Besides, in data set [4] (setting [6]), the clearance is 2.08 mL/min. The molecule further gave a t1/2 in data set [4] of 5.21 ± 0.18 h. Also, in data set [5], the “LDH release / erythrocyte membrane integrity” value was “would not alter the integrity of erythrocyte membranes”.

With Triton X 100, the “LDH release / erythrocyte membrane integrity” value in data set [5] was “exceptionally significant LDH release”.

Values taken from paper PMC9975495, “Unveiling the therapeutic potential of cabozantinib-loaded poly D,L-lactic-co-glycolic acid and polysarcosine nanoparticles in inducing apoptosis and cytotoxicity in human HepG2 hepatocellular carcinoma cell lines and in vivo anti-tumor activity in SCID female mice” (Frontiers in Oncology, 2023).
